Source: US8952024B2, “Herbicidal pyrimidone derivatives” (E I du Pont de Nemours and Company, priority 2009, dated 2015)

Legend:
Assay type in all cases: in vivo
[1] = system: sunflower (common oilseed sunflower, Helianthus annuus); experiment: Test B pre-/postemergence plant response; conditions: Preemergence; for Sunflower plant response rating: 250 g ai/ha, 0 to 100 scale
Summary of the method: (§1)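 Response scores were assigned visually after 13 to 15 days in a greenhouse, comparing treated pots with controls on a 0–100 scale where 100 denotes complete control. Preemergence treatments went onto freshly seeded loam/sand soil; postemergence treatments onto plants 2 to 18 cm tall.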

[2] = system: galium (catchweed bedstraw, Galium aparine); experiment: Test B pre-/postemergence plant response; conditions: Preemergence; for Galium plant response rating: 250 g ai/ha, 0 to 100 scale
Summary of the method: as §1

[3] = system: bermudagrass (Cynodon dactylon); experiment: Test B pre-/postemergence plant response; conditions: for Bermudagrass plant response rating: 0 to 100 scale, 0 no effect
Summary of the method: as §1

[4] = system: morningglory (Ipomoea coccinea); experiment: Test B pre-/postemergence plant response; conditions: for Morningglory plant response rating: 0 to 100 scale
Summary of the method: as §1

[5] = system: nightshade (eastern black nightshade, Solanum ptycanthum); experiment: Test B pre-/postemergence plant response; conditions: Preemergence; for Nightshade plant response rating: 250 g ai/ha, 0 to 100 scale
Summary of the method: as §1

[6] = system: canarygrass (Phalaris minor); experiment: Test B postemergence plant response
Summary of the method: (§2)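 Visual ratings from 0 (no effect) to 100 (complete control), made against controls 13–15 days after treatment, kept in a greenhouse. Compounds were applied postemergence to potted plants at the 1- to 4-leaf stage (2–18 cm).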

[7] = system: chickweed (Stellaria media); experiment: Test B postemergence plant response
Summary of the method: as §2

[8] = system: windgrass (Apera spica-venti); experiment: Test B postemergence plant response
Summary of the method: as §2

[9] = system: winter barley (Hordeum vulgare); experiment: Test B postemergence plant response
Summary of the method: as §2

[10] = system: barnyardgrass (Echinochloa crus-galli); experiment: Test B flooded paddy test; conditions: for Plant response rating, Flood, Barnyardgrass: 250 g ai/ha, flooded paddy test, visual rating on 0 to 100 scale (0 no effect, 100 complete control) after 13 to 15 days; for Plant response rating, Barnyardgrass: Flood (flooded paddy test), 13 to 15 days
Summary of the method: (§3)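 Flooded-pot test: water raised to 3 cm above soil when treating, compound put in the water, level unchanged thereafter. Plants were at 2 leaves. Readout after 13 to 15 days, visual, relative to controls; 0 signifies no effect and 100 complete control.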

[11] = system: ducksalad (Heteranthera limosa); experiment: Test B flooded paddy test; conditions: for Plant response rating, Flood, Ducksalad: 250 g ai/ha, flooded paddy test, visual rating on 0 to 100 scale (0 no effect, 100 complete control) after 13 to 15 days; for Plant response rating, Ducksalad: Flood (flooded paddy test), 13 to 15 days
Summary of the method: as §3

rice (Oryza sativa) = experiment: Test B flooded paddy test; conditions: for Plant response rating, Flood, Rice: 250 g ai/ha, flooded paddy test, visual rating on 0 to 100 scale (0 no effect, 100 complete control) after 13 to 15 days; for Plant response rating, Rice: Flood (flooded paddy test), 13 to 15 days
Summary of the method: as §3

[12] = system: umbrella sedge (Cyperus difformis); experiment: Test B flooded paddy test; conditions: for Plant response rating, Flood, Sedge, Umbrella: 250 g ai/ha, flooded paddy test, visual rating on 0 to 100 scale (0 no effect, 100 complete control) after 13 to 15 days; for Plant response rating, Sedge, Umbrella: Flood (flooded paddy test), 13 to 15 days
Summary of the method: as §3

[13] = 31 g ai/ha, scale 0 to 100 (0 no effect, 100 complete control)
[14] = 62 g ai/ha, scale 0 to 100, 0 no effect, 100 complete control
[15] = 125 g ai/ha, scale 0 to 100, 0 no effect, 100 complete control
[16] = 31 g ai/ha, postemergence, scale 0 to 100, 0 is no effect, 100 is complete control
[17] = 62 g ai/ha, postemergence, 0 is no effect, 100 is complete control, 13 to 15 days
[18] = Postemergence, 125 g ai/ha, visual rating after 13 to 15 days, scale 0 (no effect) to 100 (complete control)
[19] = Postemergence, 250 g ai/ha, scale 0 to 100 (0 no effect, 100 complete control)
[20] = Preemergence, 31 g ai/ha, scale 0 to 100 (0 no effect, 100 complete control)
[21] = Preemergence, 62 g ai/ha, scale 0 to 100, 0 no effect, 100 complete control
[22] = Preemergence, 125 g ai/ha, scale 0 to 100, 0 no effect, 100 complete control
[23] = Preemergence, 250 g ai/ha, 100 complete control
[24] = 62 g ai/ha, scale of 0 to 100 where 0 is no effect and 100 is complete control
[25] = Postemergence, 31 g ai/ha, 0 to 100 scale (0 no effect, 100 complete control)
[26] = Postemergence, 125 g ai/ha, scale 0 (no effect) to 100 (complete control), 13 to 15 days
[27] = Postemergence, 250 g ai/ha, scale 0 to 100 (0 no effect, 100 complete control), 13 to 15 days
[28] = Postemergence, 62 g ai/ha, scale 0 to 100 (0 no effect, 100 complete control)
[29] = 125 g ai/ha, scale 0 to 100, 0 is no effect, 100 is complete control
[30] = Flood, 31 g ai/ha, scale 0 to 100 (0 no effect, 100 complete control)

In the case of CCCCn1c(CCC)ncc(C(=O)C2=C(O)CCCC2=O)c1=O [Compound 75], the “Plant response rating, Sunflower” value [1, 13] is reported as 30, the “Plant response rating, Sunflower” value [1, 14] is reported as 55 and the “Plant response rating, Sunflower” value [1, 15] is reported as 75. The “Sunflower plant response rating” value [1] was 85, the “Plant response rating, Galium” value [2, 13] was 60 and the “Plant response rating, Galium” value [2, 14] was 85. For the same compound, the “Plant response rating, Galium” value [2, 15] was 95, the “Galium plant response rating” value [2] was 98 and the “Plant response rating, Bermudagrass” value [3, 16] was 90. For the same compound, the “Bermudagrass plant response rating (0 to 100 scale)” value [3, 17] was 98, the “Plant response rating, Bermudagrass” value [3, 18] was 98 and the “Plant response rating, Bermudagrass” value [3, 19] was 98. For the same compound, the “Plant response rating, Bermudagrass” value [3, 20] was 98, the “Plant response rating, Bermudagrass” value [3, 21] was 100 and the “Plant response rating, Bermudagrass” value [3, 22] was 100. The “Bermudagrass plant response rating” value [3, 23] was 100, the “Plant response rating, Morningglory” value [4, 16] was 20 and the “Morningglory plant response rating (0 to 100 scale)” value [4, 17] was 90. For the same compound, the “Plant response rating, Morningglory” value [4, 18] was 95, the “Plant response rating, Morningglory” value [4, 19] was 95 and the “Plant response rating, Morningglory” value [4, 20] was 0. For the same compound, the “Plant response rating, Morningglory” value [4, 21] was 60, the “Plant response rating, Morningglory” value [4, 22] was 75 and the “Morningglory plant response rating” value ([4]; Preemergence, 250 g ai/ha) was 90. For the same compound, the “Plant response rating, Nightshade” value [5, 13] was 95, the “Plant response rating, Nightshade” value [5, 14] was 98 and the “Plant response rating, Nightshade” value [5, 15] was 98. For the same compound, the “Nightshade plant response rating” value [5] was 100, the “Plant response rating, Canarygrass” value [6, 16] was 0 and the “Canarygrass plant response rating (0 to 100 scale)” value [6, 17] was 0. For the same compound, the “Plant response rating, Canarygrass” value [6, 18] was 0, the “Plant response rating, Canarygrass” value [6, 19] was 0 and the “Plant response rating, Chickweed” value [7, 16] was 85. The “Chickweed plant response rating (0 to 100 scale)” value [7, 17] was 90, the “Plant response rating, Chickweed” value [7, 18] was 98 and the “Plant response rating, Chickweed” value [7, 19] was 100. The “Plant response rating, Windgrass” value [8, 16] was 30, the “Windgrass plant response rating (0 to 100 scale)” value [8, 17] was 50 and the “Plant response rating, Windgrass” value [8, 18] was 70. For the same compound, the “Plant response rating, Windgrass” value [8, 19] was 90, the “Plant response rating, Barley” value [9, 16] was 0 and the “Barley plant response rating (0 to 100 scale)” value [9, 17] was 0. The “Plant response rating, Barley” value [9, 18] was 0, the “Plant response rating, Barley” value [9, 19] was 0 and the “Plant response rating, Flood, Barnyardgrass” value [10] was 60. The “Plant response rating, Barnyardgrass” value [10, 24] was 20, the “Plant response rating, Flood, Ducksalad” value [11] was 50 and the “Plant response rating, Ducksalad” value [11, 24] was 30. For the same compound, the “Plant response rating, Flood, Rice” value (rice (Oryza sativa)) was 45, the “Plant response rating, Rice” value (rice (Oryza sativa); [24]) was 0 and the “Plant response rating, Flood, Sedge, Umbrella” value [12] was 50. For the same compound, the “Plant response rating, Sedge, Umbrella” value [12, 24] was 0.

For COCCCn1c(-c2cc(F)cc(F)c2)ncc(C(=O)C2=C(O)C3CCC(C3)C2=O)c1=O (stereo not shown) [Compound 244], the “Plant response rating, Sunflower” value [1, 13] was 80, the “Plant response rating, Sunflower” value [1, 14] was 80 and the “Plant response rating, Sunflower” value [1, 15] was 85. The “Sunflower plant response rating” value [1] was 100, the “Plant response rating, Galium” value [2, 13] was 55 and the “Plant response rating, Galium” value [2, 14] was 65. The “Plant response rating, Galium” value [2, 15] was 98, the “Galium plant response rating” value [2] was 98 and the “Plant response rating, Bermudagrass” value [3, 25] was 80. The “Plant response rating, Bermudagrass” value [3, 26] was 100, the “Plant response rating, Bermudagrass” value [3, 27] was 100 and the “Plant response rating, Bermudagrass” value [3, 28] was 100. The “Plant response rating, Bermudagrass” value [3, 20] was 100, the “Plant response rating, Bermudagrass” value [3, 21] was 100 and the “Plant response rating, Bermudagrass” value [3, 22] was 100. The “Bermudagrass plant response rating” value [3, 23] was 100, the “Plant response rating, Morningglory” value [4, 25] was 90 and the “Plant response rating, Morningglory” value [4, 26] was 100. The “Plant response rating, Morningglory” value [4, 27] was 100, the “Plant response rating, Morningglory” value [4, 28] was 95 and the “Plant response rating, Morningglory” value [4, 20] was 85. The “Plant response rating, Morningglory” value [4, 21] was 90, the “Plant response rating, Morningglory” value [4, 22] was 98 and the “Morningglory plant response rating” value ([4]; Preemergence, 250 g ai/ha) was 100. For the same compound, the “Plant response rating, Nightshade” value [5, 13] was 98, the “Plant response rating, Nightshade” value [5, 14] was 100 and the “Plant response rating, Nightshade” value [5, 15] was 100. For the same compound, the “Nightshade plant response rating” value [5] was 100, the “Plant response rating, Canarygrass” value [6, 25] was 80 and the “Plant response rating, Canarygrass” value [6, 26] was 98. The “Plant response rating, Canarygrass” value [6, 27] was 100, the “Plant response rating, Canarygrass” value [6, 28] was 95 and the “Plant response rating, Chickweed” value [7, 25] was 80. For the same compound, the “Plant response rating, Chickweed” value [7, 26] was 98, the “Plant response rating, Chickweed” value [7, 27] was 100 and the “Plant response rating, Chickweed” value [7, 28] was 95. For the same compound, the “Plant response rating, Windgrass” value [8, 25] was 50, the “Plant response rating, Windgrass” value [8, 26] was 80 and the “Plant response rating, Windgrass” value [8, 27] was 95. The “Plant response rating, Windgrass” value [8, 28] was 70, the “Plant response rating, Barley” value [9, 25] was 50 and the “Plant response rating, Barley” value [9, 26] was 90. For the same compound, the “Plant response rating, Barley” value [9, 27] was 98, the “Plant response rating, Barley” value [9, 28] was 65 and the “Plant response rating, Flood, Barnyardgrass” value [10] was 75. For the same compound, the “Plant response rating, Barnyardgrass” value [10, 24] was 20, the “Plant response rating, Barnyardgrass” value [10, 29] was 40 and the “Barnyardgrass plant response rating” value [10, 30] was 0. The “Plant response rating, Flood, Ducksalad” value [11] was 100, the “Plant response rating, Ducksalad” value [11, 24] was 80 and the “Plant response rating, Ducksalad” value [11, 29] was 100. For the same compound, the “Ducksalad plant response rating” value [11, 30] was 35, the “Plant response rating, Flood, Rice” value (rice (Oryza sativa)) was 85 and the “Plant response rating, Rice” value (rice (Oryza sativa); [24]) was 0. The “Plant response rating, Rice” value (rice (Oryza sativa); [29]) was 60, the “Rice plant response rating” value (rice (Oryza sativa); [30]) was 0 and the “Plant response rating, Flood, Sedge, Umbrella” value [12] was 100. The “Plant response rating, Sedge, Umbrella” value [12, 24] was 0, the “Plant response rating, Sedge, Umbrella” value [12, 29] was 100 and the “Sedge, Umbrella plant response rating” value [12, 30] was 0.
